Experimental findings from patent US20240279236A1, “COMPOUNDS AND METHODS OF TREATING TUBERCULOSIS” (Fimbrion Therapeutics, Inc., priority 2021, published 2024) are described below.

For the test, the system named is WT Mtb Erdman strain. The test is described as follows: Microplate Alamar Blue Assay (MABA), Mtb growth inhibition. In kind it is cell-based, Mycobacterium tuberculosis. Particulars: Middlebrook 7H9 media, 7 days at 37° C. in 5% CO2. On the technique in general: The colour change of resazurin is a common sign of viable cells or microbes.
The mark [1] stands for this setting: Mycobacterium tuberculosis, ERDMAN, 168 h.

In general, IC50 refers to the concentration needed to halve the response being measured. Low readings indicate greater potency, high ones weaker potency. `Cc1nc2c(NCCCc3ccc(-c4cnc(F)cn4)cc3)nc(Cl)nc2s1` [Example 470, 5-chloro-N-(3-(4-(5-fluoropyrazin-2-yl)phenyl)propyl)-2-methylthiazolo[5,4-d]pyrimidin-7-amine] yielded an IC50 under setting [1] of 0.33 µM. `Cc1cc2c(N[C@@H]3C[C@H]3c3ccc(F)c(F)c3)nc(-c3ccc(=O)[nH]c3)nc2s1` [Example 490, 5-(4-(((1R,2S)-2-(3,4-difluorophenyl)cyclopropyl)amino)-6-methylthieno[2,3-d]pyrimidin-2-yl)pyridin-2(1H)-one] showed an IC50 of more than 9.1 µM. Under setting [1], this molecule gave a concentration for half-maximal inhibition (IC50) of 4.7 µM. Under setting [1], `Cc1cc2c(N[C@@H]3C[C@H]3c3ccc(F)c(F)c3)nc(-c3ccnc(N(C)C)c3)nc2s1` [Example 491, N-((1R,2S)-2-(3,4-difluorophenyl)cyclopropyl)-2-(2-(dimethylamino)pyridin-4-yl)-6-methylthieno[2,3-d]pyrimidin-4-amine] returned an IC50 of 4.4 µM. For `Cc1cc2c(N[C@@H]3C[C@H]3c3ccc(F)c(F)c3)nc(-c3ccc(S(C)(=O)=O)cc3)nc2s1` [Example 492, N-((1R,2S)-2-(3,4-difluorophenyl)cyclopropyl)-6-methyl-2-(4-(methylsulfonyl)phenyl)thieno[2,3-d]pyrimidin-4-amine], the IC50 under setting [1] was more than 10 µM. The same measure, in the same setting: the same measure for `Cc1cc2c(N[C@@H]3C[C@H]3c3ccc(F)c(F)c3)nc(-c3cncnc3)nc2s1` [Example 493, N-((1R,2S)-2-(3,4-difluorophenyl)cyclopropyl)-6-methyl-2-(pyrimidin-5-yl)thieno[2,3-d]pyrimidin-4-amine]: more than 10 µM.

For `CNS(=O)(=O)c1ccccc1-c1nc(N[C@@H]2C[C@H]2c2ccc(F)c(F)c2)c2cc(C)sc2n1` [Example 494, 2-(4-(((1R,2S)-2-(3,4-difluorophenyl)cyclopropyl)amino)-6-methylthieno[2,3-d]pyrimidin-2-yl)-N-methylbenzenesulfonamide], the half-maximal inhibitory concentration (IC50) under setting [1] was more than 10 µM. Same read-out and setting: as for `Cc1cc2c(N[C@@H]3C[C@H]3c3ccc(F)c(F)c3)nc(-c3ccccc3O)nc2s1` [Example 495, 2-(4-(((1R,2S)-2-(3,4-difluorophenyl)cyclopropyl)amino)-6-methylthieno[2,3-d]pyrimidin-2-yl)phenol], the figure is more than 10 µM; as for `COc1ccccc1-c1nc(N[C@@H]2C[C@H]2c2ccc(F)c(F)c2)c2cc(C)sc2n1` [Example 496, N-((1R,2S)-2-(3,4-difluorophenyl)cyclopropyl)-2-(2-methoxyphenyl)-6-methylthieno[2,3-d]pyrimidin-4-amine], more than 10 µM.

In turn, `Cc1cc2c(N[C@@H]3C[C@H]3c3ccc(F)c(F)c3)nc(-c3ccc(O)cc3)nc2s1` [Example 497, 4-(4-(((1R,2S)-2-(3,4-difluorophenyl)cyclopropyl)amino)-6-methylthieno[2,3-d]pyrimidin-2-yl)phenol] gave an IC50 under setting [1] of more than 10 µM. As for `COc1ccc(-c2nc(N[C@@H]3C[C@H]3c3ccc(F)c(F)c3)c3cc(C)sc3n2)cc1` [Example 498, N-((1R,2S)-2-(3,4-difluorophenyl)cyclopropyl)-2-(4-methoxyphenyl)-6-methylthieno[2,3-d]pyrimidin-4-amine], under setting [1], the IC50 was found to be 4.1 µM.

In the case of `Cc1cc2c(N[C@@H]3C[C@H]3c3ccc(F)c(F)c3)nc(-c3ccc(F)cc3F)nc2s1` [Example 499, 2-(2,4-difluorophenyl)-N-((1R,2S)-2-(3,4-difluorophenyl)cyclopropyl)-6-methylthieno[2,3-d]pyrimidin-4-amine], under setting [1], the IC50 came out at 3.4 µM. In turn, `Cc1cc2c(N[C@@H]3C[C@H]3c3ccc(F)c(F)c3)nc(-c3ccc(F)c(F)c3)nc2s1` [Example 500, 2-(3,4-difluorophenyl)-N-((1R,2S)-2-(3,4-difluorophenyl)cyclopropyl)-6-methylthieno[2,3-d]pyrimidin-4-amine] gave a half-inhibitory concentration (IC50) under setting [1] of 3.6 µM.

The molecule `Cc1cc2c(N[C@@H]3C[C@H]3c3ccc(F)c(F)c3)nc(-c3cccc(N(C)C)c3)nc2s1` [Example 501, N-((1R,2S)-2-(3,4-difluorophenyl)cyclopropyl)-2-(3-(dimethylamino)phenyl)-6-methylthieno[2,3-d]pyrimidin-4-amine] had a half-inhibitory concentration (IC50) under setting [1] of more than 10 µM.

`C=Cc1nc(NCCCc2ccc(-c3ccc(OC(F)(F)F)cc3)cc2)c2cc(C)sc2n1` [Example 502, 2-ethenyl-6-methyl-N-(3-[4′-(trifluoromethoxy)-[1,1′-biphenyl]-4-yl]propyl)thieno[2,3-d]pyrimidin-4-amine] returned a concentration for half-maximal inhibition (IC50) under setting [1] of 0.006 µM. The same measure, in the same setting: the same measure for `c1ccc(CCCNc2nc(N3CCOCC3)nc3sccc23)cc1` [Example 504, 2-morpholino-N-(3-phenylpropyl)thieno[2,3-d]pyrimidin-4-amine]: more than 10 µM; for `c1ccc(CCCNc2nc(NC3CC3)nc3sccc23)cc1` [Example 505, N2-cyclopropyl-N4-(3-phenylpropyl)thieno[2,3-d]pyrimidine-2,4-diamine]: 9.1 µM. Same read-out and setting: as for `Cc1cc2c(NCCCc3ccc(OC(F)(F)F)cc3)nc(N3CCCC3)nc2s1` [Example 506, 6-methyl-2-(pyrrolidin-1-yl)-N-(3-(4-(trifluoromethoxy)phenyl)propyl)thieno[2,3-d]pyrimidin-4-amine], the figure is 0.12 µM. As to `Cc1cc2c(NCCCc3ccccc3)nc(N3CCSCC3)nc2s1` [Example 507, 6-methyl-N-(3-phenylpropyl)-2-thiomorpholinothieno[2,3-d]pyrimidin-4-amine], the half-inhibitory concentration (IC50) under setting [1] was more than 10 µM.

As to `Cc1cc2c(NCCCc3ccccc3)nc(N3CCN(C)CC3)nc2s1` [Example 508, 6-methyl-2-(4-methylpiperazin-1-yl)-N-(3-phenylpropyl)thieno[2,3-d]pyrimidin-4-amine], the IC50 under setting [1] was more than 10 µM. The same measure, in the same setting: as for `Cc1cc2c(NCCCc3ccccc3)nc(N3CCC3)nc2s1` [Example 510, 2-(azetidin-1-yl)-6-methyl-N-(3-phenylpropyl)thieno[2,3-d]pyrimidin-4-amine], the figure is 0.11 µM; as for `Cc1cc2c(NCCCc3ccccc3)nc(N3CC(F)(F)C3)nc2s1` [Example 511, 2-(3,3-difluoroazetidin-1-yl)-6-methyl-N-(3-phenylpropyl)thieno[2,3-d]pyrimidin-4-amine], 0.57 µM; as for `Cc1cc2c(NCCCc3ccccc3)nc(N3CC(F)C3)nc2s1` [Example 512, 2-(3-fluoroazetidin-1-yl)-6-methyl-N-(3-phenylpropyl)thieno[2,3-d]pyrimidin-4-amine], 0.61 µM. Same read-out and setting: as for `Cc1cc2c(NCCCc3ccccc3)nc(N3CCC(F)(F)C3)nc2s1` [Example 513, 2-(3,3-difluoropyrrolidin-1-yl)-6-methyl-N-(3-phenylpropyl)thieno[2,3-d]pyrimidin-4-amine], the figure is 0.23 µM. The same measure, in the same setting: as for `Cc1cc2c(NCCCc3ccccc3)nc(N3CCC[C@H]3C)nc2s1` [Example 514, (R)-6-methyl-2-(2-methylpyrrolidin-1-yl)-N-(3-phenylpropyl)thieno[2,3-d]pyrimidin-4-amine], the figure is 7 µM. Consider `Cc1cc2c(NCCCc3ccccc3)nc(N3CCC(F)(F)CC3)nc2s1` [Example 515, 2-(4,4-difluoropiperidin-1-yl)-6-methyl-N-(3-phenylpropyl)thieno[2,3-d]pyrimidin-4-amine], for which, under setting [1], the concentration for half-maximal inhibition (IC50) was more than 10 µM. In the case of `Cc1cc2c(NCCCc3ccccc3)nc(N3CCCC3)nc2s1` [Example 516, 6-methyl-N-(3-phenylpropyl)-2-(pyrrolidin-1-yl)thieno[2,3-d]pyrimidin-4-amine], under setting [1], the half-maximal inhibitory concentration (IC50) was 0.11 µM.
